# From US12539298B2, “Lobinaline N-oxides as positive allosteric modulators of the dopamine transporter with potential value in the treatment of substance abuse disorders” (University of Kentucky Research Foundation, priority 2019, dated 2026)
# Like-named read-outs stand apart in the source and are kept apart here.
# Tests used:
# [1] = molecular target: nicAChRs; assay: displacement of [3H]epibatidine from rat brain homogenates; type: binding
# [2] = conditioned place preference (abuse potential); type: in vivo, SD rats
# Source text: In conditioned place preference a chamber with distinct cues is repeatedly paired with administration of the test drug. A second chamber is repeatedly paired with a control injection. After conditioning, a test phase allows the rat to move between the chambers. If a drug is “rewarding” (i.e. has abuse potential), the rat spends more time in the drug-associated chamber. If it is aversive, the opposite result is obtained.
# Methods: 6 male and 6 female SD rats were used for each drug and dose. Test drugs (5 or 25 mg/kg lobinaline, or 25 mg/Kg of lobinaline bi-N-oxide S.C) were paired with the “less preferred” compartment (standard for drugs that may be weakly reinforcing) for 20 minutes. On the next day, rats received a control (DMSO/saline) injection and were placed in the preferred chamber. After three repeated pairings (test and control), the subjects were given access to both chambers and the time spent in each compartment was recorded and scored by an observer blind to treatment. Analysis was by two way ANOVA with post hoc Bonnferoni with significance set at p<0.05. Results. Most animals spent most of the test period in the compartment originally preferred in the drug-free state, and there were no significant differences between drug and vehicle controls.
# [3] = Drinking in the dark model of binge drinking; type: in vivo, C57Bl/6J mice; conditions: 25 mg/Kg SC
# Protocol: “Drinking in the dark” is a model for binge drinking in which C57Bl/6J mice are given limited access to alcohol during their dark cycle. With repeated daily access, mice will voluntarily drink to blood alcohol levels above 150 mg/dl. Lobeline reduces alcohol consumption in this model and it has predictive validity in that both naltrexone and acamprosate are active.
# Methods: 8 male and 8 female mice were used for each of these studies and scoring was by an observer blind to treatment. Statistical analysis was by ANOVA followed by Bonnferoni posthoc with significance at p<0.05.
# [4] = nicotine-induced locomotor activation (LMA), open field; type: in vivo, SD rats
# Protocol: low S.C. doses of nicotine, repeated daily, cause progressive LMA related to mesolimbic DA release. This is reduced by lobeline and varenicline and therefore has predictive value as a screen for potential therapeutics in nicotine use disorder.
# Methods: 2 groups of 6 adult SD rats of each sex were tested in an open-field apparatus for LMA. Each animal received a daily nicotine injection (0.5 mg/Kg SC) for 6 days with the last nicotine injection preceded (20 min) by 25 mg/Kg SC of lobinaline bi-N-oxide. Behavior was recorded and scored by an observer blind to treatment. Data was presented as line crosses/5 minutes with LMA over days 1-5 compared to LMA on day 6.
# [5] = molecular target: T1, DAT (Rattus norvegicus, UniProt P23977); assay: [3H]DA uptake into rat striatal synaptosomes; type: biochemical; design: from tissue; host or cells: rat striatum (synaptosomes; homogenate); conditions: compound added 15 min before [3H]DA, 30 min at 37° C, read-out: IC50, inhibition of [3H]-DA uptake
# Protocol: Lobinaline or the N-oxides were added 15 min before addition of [3H]DA. Synaptosomal uptake of [3H]DA was measured after 30 min incubation at 37° C.
# [6] = molecular target: T1, DAT; assay: DA clearance in striatum of anesthetized rats by in vivo electrochemistry (high-speed chronoamperometry), Example 8; design: DA clearance in striatum and nucleus accumbens of urethane-anesthetized SD rats; from tissue; host or cells: striatum / nucleus accumbens of living anesthetized SD rats; species or system SD rats; conditions: for reduction in DA clearance: striatum, 1 minute after local application (lobinaline ~250 nl 1 mM; 403, 419 ~300 nl 250 μM), FIGS. 7-9; for increase in amplitude of DA signal: ~300 nl, 250 μM local application, FIGS. 8, 9
# Protocol: DA clearance in striatum and nucleus accumbens of urethane-anesthetized SD rats was monitored by in vivo electrochemistry using high-speed chrono-amperometry [see 36]. After obtaining reproducible signals for locally applied DA, vehicle or drug was applied slowly over 10-30 sec, then 30-60 sec later the next application of DA was made, with subsequent DA applications at 5-minute intervals for 25-30 min. The DA kinetic data from each animal was analyzed using FAST software (Quanteon). […] These effects were no longer seen 3-5 minutes after lobinaline ejection. They are consistent with simple competitive inhibition of the DAT by lobinaline. […] However, the lobinaline N-oxides produce different effects. Representative data from lobinaline N-oxide, at the same concentration used for lobinaline (1 mM in 250 nl medium) are shown in FIG. 6. […] This is entirely consistent with effects on synaptosomal [3H]DA uptake in vitro above, and probably represents competitive inhibition. However, after exposure to the N-oxide there is a significant and prolonged (c20 min) increase in the first order rate of decay of the DA peak. […] This increase in rate constant induced by the N-oxide varied from 20× to 2× at increasing depths in the DV gradient.
# The uptake rate of locally applied DA (˜100 nl; 200 μM) was measured before and 1 minute after local application of lobinaline (˜250 nl; 1 mM), 403 (˜300 nl; 250 μM) or 419 (˜300 nl; 250 μM) (FIGS. 7, 8, and 9).
# [7] = molecular target: T1, DAT; design: from tissue; host or cells: rat striatum (synaptosomes; homogenate); conditions: literature values [33], [34]; read-out: IC50, DA uptake under similar conditions; cited from earlier work
# [8] = aqueous solubility; type: physicochemical
# Source text: Lobinaline (FIG. 1), was isolated from plant material and identified as the first-known binitrogenous plant alkaloid more than 80 years ago [27]. The applicants began to test its pharmacological activity after identifying Lobelia cardinalis as a novel source of nicAChR activity by high throughput screening in 2005 [26]. This plant species has no history of abuse, or traditional medicinal use of relevance to SUDs. […] These actions support lobinaline as a lead compound for the treatment of SUDs, particularly alcohol and nicotine use disorders. […] Lobinaline also appears to have appropriate pharmacokinetics and low toxicity. […] Conversely, this makes it a good test of the ability of target-directed evolution to generate novel inhibitors of the DAT in mutant plant cells.
# Lobinaline and the “mono”-N-oxide were separated from plant and culture material by acid/base extraction, but the bi-N-oxide was derived from lobinaline using 3-chloroperbenzoic acid. All these compounds were separated by column chromatography with identity and purity confirmed by LC/MS.
# [9] = molecular target: T1, DAT; assay: dopamine uptake in striatum of isoflurane-anesthetized rats by in vivo electrochemistry, Examples 19-20; design: DA clearance in striatum and nucleus accumbens of urethane-anesthetized SD rats; from tissue; host or cells: striatum / nucleus accumbens of living anesthetized SD rats; species or system SD rats
# Protocol: After obtaining reproducible signals for locally applied DA (50-75 nl, 200 μM) to produce a control DA peak height below 1 uM, vehicle or drug was locally applied slowly over 10-30 sec (˜500 nl 250 μM), then 60 sec later the next application of DA was performed, with subsequent DA applications at 5-min intervals for 25 min. […] The DA kinetic data from each animal were analyzed using FAST software (Quanteon, LLC, Nicholasville KY USA). […] These parameters were compared between pre- and post-drug application by one-way ANOVA with Tukey's post hoc analysis, with significance assigned at p<0.05.
# [10] = system: nicAChR; assay: 45Ca2+ entry into SHSY5Y cells; type: cell-based; conditions: SHSY5Y cells; antagonist 1 uM
# Source text: Effects of lobinaline and nicotine on ^45Ca^2+ entry into SHSY5Y cells: nicAChR function can be evaluated semi-quantitatively in this cell line by measuring ^45Ca^2+ entry in response to nicotine. […] The lobinaline N-oxides have not yet been tested in this system.
# [11] = system: nicAChRs; assay: [3H]DA release from superfused rat striatal slices; type: cell-based; conditions: antagonist 10 μM
# Protocol: Effects of lobinaline and nicotine on [3H]DA release from superfused rat striatal slices (ref 5): rat brain striatal slices were incubated with [3H]DA for 30 min at […] before transfer to superfusion chambers. […] To evaluate the role of nicAChRs, striatal slices preloaded with [3H]-DA were pretreated with the nicAChR antagonist mecamylamine (10 μM) prior to superfusion of lobinaline (100 μM). […] With the data above from SHSY5Y cells, this supports a partial agonist action of lobinaline at nicAChRs. The N-oxides have not yet been tested in this system. Lobinaline has weak agonist effects on nicAChRs, but also has as yet unquantified antagonist effects (i.e. it acts as a partial agonist at nicAChRs).
# T1 sequence (P23977 whole entry): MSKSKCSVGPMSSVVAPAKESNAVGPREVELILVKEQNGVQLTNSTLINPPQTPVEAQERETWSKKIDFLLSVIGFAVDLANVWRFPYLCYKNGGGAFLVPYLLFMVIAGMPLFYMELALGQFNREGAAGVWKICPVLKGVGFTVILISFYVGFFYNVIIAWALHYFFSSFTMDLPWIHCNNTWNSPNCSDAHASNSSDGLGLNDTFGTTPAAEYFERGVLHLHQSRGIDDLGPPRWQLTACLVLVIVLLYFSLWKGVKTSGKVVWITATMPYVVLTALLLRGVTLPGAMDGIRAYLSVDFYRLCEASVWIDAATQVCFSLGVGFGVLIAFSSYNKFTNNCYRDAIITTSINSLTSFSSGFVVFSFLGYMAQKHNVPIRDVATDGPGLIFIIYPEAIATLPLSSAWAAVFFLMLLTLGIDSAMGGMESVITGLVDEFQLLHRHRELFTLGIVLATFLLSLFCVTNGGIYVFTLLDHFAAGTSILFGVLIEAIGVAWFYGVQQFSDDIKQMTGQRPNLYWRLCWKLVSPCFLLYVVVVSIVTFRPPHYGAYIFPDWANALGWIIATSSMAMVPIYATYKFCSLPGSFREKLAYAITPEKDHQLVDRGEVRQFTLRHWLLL
structure (smiles),measurement,setting,value
C[N+]1([O-])CCCC2C(c3ccccc3)C(C3=[N+]([O-])CCCC3)C(c3ccccc3)CC21 (centres unmarked) [lobinaline bi-N-oxide],Ki,[1],6.5 µM
same,character of [3H]epibatidine displacement,[1],monophasically displaced
same,overt toxicity,[2]; after 3 repeated drug administrations,no signs of overt toxicity
same,sedation or locomotor activation,"[2]; lobinaline 5 or 25 mg/kg, bi-N-oxide 25 mg/Kg S.C",no sedation or locomotor activation
same,conditioned place preference or aversion,"[2]; lobinaline 5 or 25 mg/kg, bi-N-oxide 25 mg/Kg S.C, three pairings",neither lobinaline nor the lobinaline bi-N-oxide produced conditioned place preference or aversion
same,food or water intake,[3],no reduction in food or water intake
same,overt toxicity,[3],neither compound produced overt toxicity
same,effect on nicotine-induced LMA sensitization trend,[4]; 25 mg/Kg SC 20 min before nicotine 0.5 mg/Kg SC on day 6,reversed in both sexes
same,individual animals showing the same trend,"[4]; day 6 vs days 1-5, repeated measures",10/12
same,IC50,[5],1.19 µM
same,effects on the DAT in vivo compared with mono-N-oxide,"[6]; rat, in vivo",less potent than the “natural” mono-N-oxide
same,reduction in DA clearance,[6],40%
same,increase in amplitude of DA signal,[6],4 fold
CC(NC(C)(C)C)C(=O)c1cccc(Cl)c1 (centres unmarked) [bupropion],IC50,[7],1.9 µM
"C[N+]1([O-])CCCC2C(c3ccccc3)C(C3=NCCCC3)C(c3ccccc3)CC21 (centres unmarked) [lobinaline N-oxide, lobinaline mono-N-oxide]",aqueous solubility,[8],much more soluble than lobinaline
same,character of [3H]epibatidine displacement,[1],more weakly with a multiphasic displacement curve
same,IC50,[5],0.517 µM
same,increase in amplitude of the DA signal,"[6]; 1 mM in 250 nl medium, FIG. 6",twofold increase
same,duration of increase in first order rate of decay of the DA peak,"[6]; after exposure, 1 mM in 250 nl",~20 min
same,increase in first order rate constant of DA decay,"[6]; dorso-ventral position −5.5 mm, remains after 16 minutes",about three-fold
same,reduction in DA clearance,[6],60%
same,increase in amplitude of DA signal,[6],doubling
same,"DA clearance parameters, dorsal striatum, early changes","[9]; DV-3.5 to DV-5.5 mm, FIG. 12","increase in T80 and clearance rate that reflects the increase in peak amplitude, with no change in k−1"
same,"DA peak amplitude, dorsal striatum","[9]; DV-3.5 to DV-5.5 mm, up to 26 minutes after micro-injection, FIG. 12",marked and prolonged (but variable) increase
same,"DA peak amplitude, ventral striatum","[9]; DV-6 to −7.5 mm (shell of nucleus accumbens), up to 26 minutes, FIG. 13",marked and consistent increase
same,"DA clearance parameters, ventral striatum","[9]; DV-6 to −7.5 mm, FIG. 13",increase in clearance rate and k−1 at 21 and 26 minutes
same,"DA clearance parameters, dorsal striatum, later","[9]; after 11-26 minutes, FIG. 12",increase in both uptake rate and k−1 with little change in T80
same,duration of increase in DA amplitude,[9]; over four local applications of dopamine,at least 20 minutes
same,effect on DA clearance parameters,[9]; relative to % control,reduced immediately after microinjection but increased later
same,effect on amplitude of the DA signal,"[9]; single local application ~500 nl 250 μM, striatum, FIGS. 10, 11",increase in amplitude
CNC1(C)C2CCC(C2)C1(C)C (centres unmarked) [mecamylamine],inhibition of lobinaline-fraction-evoked 45Ca2+ entry by antagonist,[10],completely inhibited
same,effect of antagonist pretreatment on lobinaline (100 μM)-evoked fractional [3H] release,[11],significantly attenuated
